Results on 1 compound are retold here after PMC12670765, “Employment of chia gum and tannic acid as natural products in immobilization of horseradish peroxidase for the removal of azo dye” (BMC Biotechnology, 2025).

The structures appear in SMILES notation.

In the experiment the test system is T1, Horseradish peroxidase (HRP), soluble HRP.
T1 construct: gene PRXC1A; free soluble form
The experiment is described as follows: Lineweaver-Burk; absorbance at […] nm. In kind it is biochemical, Armoracia rusticana. The conditions noted are these: soluble enzyme; co-substrate H2O2 (standard assay 8 mM); standard assay 20 mM sodium acetate pH 5.5.

For `COc1ccccc1O` [guaiacol], the Km worked out at 6.9 mM.
